From patent US5444042A, “Method of treatment of neurodegeneration with calpain inhibitors” (Cortex Pharmaceuticals, priority 1994, dated 1995)

Biological target: T1, Calpain I (Homo sapiens, UniProt P07384)
T1 sequence (P07384 1-714): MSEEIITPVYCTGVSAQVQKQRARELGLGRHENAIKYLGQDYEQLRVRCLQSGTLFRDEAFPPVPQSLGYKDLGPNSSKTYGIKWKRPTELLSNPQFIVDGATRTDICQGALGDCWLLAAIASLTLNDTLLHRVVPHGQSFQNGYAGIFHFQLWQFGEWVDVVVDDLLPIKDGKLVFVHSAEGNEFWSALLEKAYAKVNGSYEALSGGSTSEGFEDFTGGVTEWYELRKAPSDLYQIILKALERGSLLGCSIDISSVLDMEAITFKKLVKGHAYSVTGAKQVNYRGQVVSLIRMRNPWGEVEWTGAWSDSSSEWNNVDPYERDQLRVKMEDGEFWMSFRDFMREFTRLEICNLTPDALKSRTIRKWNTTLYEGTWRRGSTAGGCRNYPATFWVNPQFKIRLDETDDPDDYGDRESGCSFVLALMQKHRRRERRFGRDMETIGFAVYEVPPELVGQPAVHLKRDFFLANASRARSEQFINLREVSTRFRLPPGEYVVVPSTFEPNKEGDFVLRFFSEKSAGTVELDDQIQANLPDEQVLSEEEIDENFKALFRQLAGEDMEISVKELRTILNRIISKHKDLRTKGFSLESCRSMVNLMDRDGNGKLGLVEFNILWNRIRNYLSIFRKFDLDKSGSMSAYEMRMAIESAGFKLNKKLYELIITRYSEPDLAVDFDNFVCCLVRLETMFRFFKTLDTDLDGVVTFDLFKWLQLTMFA
T1 sequence (P04632 1-268 partner): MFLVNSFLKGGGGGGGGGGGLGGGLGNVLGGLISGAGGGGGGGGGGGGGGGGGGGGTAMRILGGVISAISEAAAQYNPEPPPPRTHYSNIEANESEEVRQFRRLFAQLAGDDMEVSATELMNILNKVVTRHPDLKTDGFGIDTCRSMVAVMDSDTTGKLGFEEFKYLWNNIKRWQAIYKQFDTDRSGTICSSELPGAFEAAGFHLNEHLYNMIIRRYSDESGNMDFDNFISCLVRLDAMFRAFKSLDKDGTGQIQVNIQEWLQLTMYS
Assay: Calpain I KI (Table 1B(ii))
Type: biochemical
Conditions: Table 1B(ii)
Text: We tested the ability of an additional group of Peptide Keto-Compounds to inhibit several proteases in order to evaluate their specificity for Calpain.

CCCC(NC(=O)[C@H](CC(C)C)NC(=O)OCc1ccccc1)C(=O)C(=O)OCC (mixture of isomers) [Z-Leu-Nva-COOEt, Z-Leu-DL-Nva-COOEt]
Ki: 1.4 µM
